# Experimental data taken from patent US20260258035A1, “FIVE-MEMBERED AND SIX-MEMBERED NITROGEN-CONTAINING COMPOUND, AND INTERMEDIATE, PREPARATION METHOD AND USE THEREOF” (HANGZHOU SYNRX THERAPEUTICS BIOMEDICAL TECHNOLOGY CO., LTD., priority 2022, published 2026).
# How the values were obtained:
# PARG = PARG (Homo sapiens, UniProt Q86W56); test: Biochemical assay (PARG, TFMU-ADPr substrate); details: PARG, TFMU-ADPr substrate
# HCC1806 = test: Cell viability assay (CellTiter-Glo); format: cell-based, Human; details: Homo sapiens, HCC1806, 168 h, HCC1806, 7 days, CellTiter-Glo; read-out: IC50 (nM) in cell viability assay
# Sequence of PARG (Q86W56 whole entry): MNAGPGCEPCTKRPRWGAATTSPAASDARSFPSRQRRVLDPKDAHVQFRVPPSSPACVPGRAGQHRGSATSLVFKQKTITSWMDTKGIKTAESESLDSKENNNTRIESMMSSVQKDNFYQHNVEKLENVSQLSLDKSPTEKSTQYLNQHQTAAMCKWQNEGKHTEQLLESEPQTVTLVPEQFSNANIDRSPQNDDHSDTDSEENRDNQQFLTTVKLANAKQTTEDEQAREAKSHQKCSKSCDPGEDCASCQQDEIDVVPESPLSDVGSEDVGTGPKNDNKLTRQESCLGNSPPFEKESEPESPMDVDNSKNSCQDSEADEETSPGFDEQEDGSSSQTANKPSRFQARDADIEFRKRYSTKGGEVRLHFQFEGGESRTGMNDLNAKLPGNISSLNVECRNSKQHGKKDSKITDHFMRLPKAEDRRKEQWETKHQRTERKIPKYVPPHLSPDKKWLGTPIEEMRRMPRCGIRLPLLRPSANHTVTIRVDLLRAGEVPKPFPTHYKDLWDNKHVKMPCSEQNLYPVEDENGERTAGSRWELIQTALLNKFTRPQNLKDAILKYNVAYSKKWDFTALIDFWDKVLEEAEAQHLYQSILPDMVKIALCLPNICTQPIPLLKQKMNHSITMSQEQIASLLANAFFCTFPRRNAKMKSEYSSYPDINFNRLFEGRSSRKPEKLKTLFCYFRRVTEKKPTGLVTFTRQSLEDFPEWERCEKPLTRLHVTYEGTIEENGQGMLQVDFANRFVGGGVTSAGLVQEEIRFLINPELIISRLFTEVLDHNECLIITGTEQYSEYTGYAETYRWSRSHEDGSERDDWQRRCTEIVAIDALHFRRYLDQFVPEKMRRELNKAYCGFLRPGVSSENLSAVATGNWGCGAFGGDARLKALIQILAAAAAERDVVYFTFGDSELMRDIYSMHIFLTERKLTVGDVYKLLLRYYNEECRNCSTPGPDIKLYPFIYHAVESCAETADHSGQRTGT
Structure (SMILES),IC50 (PARG) [nM],IC50 (HCC1806) [nM]
"CC1(NS(=O)(=O)c2cc(N3CCN(C(=O)[C@H]4C[C@H](F)CN4)CC3)c3cnc(-c4nnc(C(F)(F)F)s4)n3c2)CC1 [Example 323, 8-(4-((2R,4S)-4-fluoropyrrolidine-2-carbonyl)piperazin-1-yl)-N-(1-methylcyclopropyl)-3-(5-(trifluoromethyl)-1,3,4-thiadiazol-2-yl)imidazo[1,5-a]pyridine-6-sulfonamide]",5.41,181
"CN1CC[C@@H]1C(=O)N1CCN(c2cc(S(=O)(=O)NC3(C)CC3)cn3c(-c4nnc(C(F)F)s4)ncc23)CC1 [Example 309, (R)-3-(5-(difluoromethyl)-1,3,4-thiadiazol-2-yl)-8-(4-(1-methylazetidine-2-carbonyl)piperazin-1-yl)-N-(1-methylcyclopropyl)imidazo[1,5-a]pyridine-6-sulfonamide]",1.03,570
"CC(C)C(=O)N1CC=C(c2cc(S(=O)(=O)NC3(C#N)CC3)cn3c(-c4nnc(C(F)(F)F)s4)ncc23)CC1 [Example 368, N-(1-cyanocyclopropyl)-8-(1-isobutyryl-1,2,3,6-tetrahydropyridin-4-yl)-3-(5-(trifluoromethyl)-1,3,4-thiadiazol-2-yl)imidazo[1,5-a]pyridine-6-sulfonamide]",13.8,900
"COC[C@H]1CN(c2cc(S(=O)(=O)NC3(C)COC3)cn3c(-c4nnc(C(F)F)s4)nc(Cl)c23)C[C@H](C)N1 [Example 403, 1-chloro-3-(5-(difluoromethyl)-1,3,4-thiadiazol-2-yl)-8-((3R,5S)-3-(methoxymethyl)-5-methylpiperazin-1-yl)-N-(3-methyloxetan-3-yl)imidazo[1,5-a]pyridine-6-sulfonamide]",21.9,458
"Cc1ncnn1CC(=O)N1CCN(c2cc(S(=O)(=O)NC3(C)CC3)cn3c(-c4nnc(C(F)(F)F)s4)ncc23)CC1 [Example 335, 8-(4-(2-(5-methyl-1H-1,2,4-triazol-1-yl)acetyl)piperazin-1-yl)-N-(1-methylcyclopropyl)-3-(5-(trifluoromethyl)-1,3,4-thiadiazol-2-yl)imidazo[1,5-a]pyridine-6-sulfonamide]",6.55,480
"CN(C)C(=O)C1CCN(c2cc(S(=O)(=O)NC3(C#N)CC3)cn3c(-c4nnc(C(F)F)s4)ncc23)CC1 [Example 212, 1-(6-(N-(1-cyanocyclopropyl)sulfamoyl)-3-(5-(difluoromethyl)-1,3,4-thiadiazol-2-yl)imidazo[1,5-a]pyridin-8-yl)-N,N-dimethylpiperidine-4-carboxamide]",110,3000
"C[C@H]1CN(c2cc(S(=O)(=O)NC3(C)COC3)cn3c(-c4nnc(C(F)F)s4)ncc23)C[C@H](C)N1C [Example 400, 3-(5-(difluoromethyl)-1,3,4-thiadiazol-2-yl)-N-(3-methyloxetan-3-yl)-8-((3S,5S)-3,4,5-trimethylpiperazin-1-yl)imidazo[1,5-a]pyridine-6-sulfonamide]",6.31,267
"COC1(C(=O)N2CC=C(c3cc(S(=O)(=O)NC4(C#N)CC4)cn4c(-c5nnc(C(F)(F)F)s5)ncc34)CC2)CC1 [Example 379, N-(1-cyanocyclopropyl)-8-(1-(1-methoxycyclopropane-1-carbonyl)-1,2,3,6-tetrahydropyridin-4-yl)-3-(5-(trifluoromethyl)-1,3,4-thiadiazol-2-yl)imidazo[1,5-a]pyridine-6-sulfonamide]",2.09,20
"CC1(NS(=O)(=O)c2cc(N3CCN(C(=O)C(O)C(F)(F)F)CC3)c3cnc(-c4nnc(C(F)(F)F)s4)n3c2)CC1 (stereo not shown) [Example 282, N-(1-methylcyclopropyl)-8-(4-(3,3,3-trifluoro-2-hydroxypropanoyl)piperazin-1-yl)-3-(5-(trifluoromethyl)-1,3,4-thiadiazol-2-yl)imidazo[1,5-a]pyridine-6-sulfonamide]",20,84.3
"CN(C)CCN(C)C(=O)N1CCN(c2cc(S(=O)(=O)NC3(C)COC3)cn3c(-c4nnc(C(F)F)s4)ncc23)CC1 [Example 187, 4-(3-(5-(difluoromethyl)-1,3,4-thiadiazol-2-yl)-6-(N-(3-methyloxetan-3-yl)sulfamoyl)imidazo[1,5-a]pyridin-8-yl)-N-(2-(dimethylamino)ethyl)-N-methylpiperazine-1-carboxamide]",3.37,874
"CC1(NS(=O)(=O)c2cc(N3CCN(C(=O)C4CC(=O)N4)CC3)c3cnc(-c4nnc(C(F)(F)F)s4)n3c2)CC1 (stereo not shown) [Example 343, N-(1-methylcyclopropyl)-8-(4-(4-oxoazetidine-2-carbonyl)piperazin-1-yl)-3-(5-(trifluoromethyl)-1,3,4-thiadiazol-2-yl)imidazo[1,5-a]pyridine-6-sulfonamide]",5.41,852
"COC1(C(=O)N2CCN(c3c(F)c(S(=O)(=O)NC4CC4)cn4c(-c5nnc(C(F)(F)F)s5)ncc34)CC2)CC1 [Example 195, N-cyclopropyl-7-fluoro-8-(4-(1-methoxycyclopropane-1-carbonyl)piperazin-1-yl)-3-(5-(trifluoromethyl)-1,3,4-thiadiazol-2-yl)imidazo[1,5-a]pyridine-6-sulfonamide]",5.62,666
"N#CC1(NS(=O)(=O)c2cc(N3CCC(n4ccnn4)CC3)c3cnc(-c4nnc(C(F)(F)F)s4)n3c2)CC1 [Example 218, 8-(4-(1H-1,2,3-triazol-1-yl)piperidin-1-yl)-N-(1-cyanocyclopropyl)-3-(5-(trifluoromethyl)-1,3,4-thiadiazol-2-yl)imidazo[1,5-a]pyridine-6-sulfonamide]",39.8,1050
"N#CC1(NS(=O)(=O)c2cc(N3CCN(C(=O)C(O)C(F)(F)F)CC3)c3cnc(-c4nnc(C(F)(F)F)s4)n3c2)CC1 (stereo not shown) [Example 231, N-(1-cyanocyclopropyl)-8-(4-(3,3,3-trifluoro-2-hydroxypropanoyl)piperazin-1-yl)-3-(5-(trifluoromethyl)-1,3,4-thiadiazol-2-yl)imidazo[1,5-a]pyridine-6-sulfonamide]",8.32,500
"Cc1nc(-c2nnc(C(F)F)s2)n2cc(S(=O)(=O)NC3(C#N)CC3)cc(N3CCN(C(=O)C(C)C)CC3)c12 [Example 170, N-(1-cyanocyclopropyl)-3-(5-(difluoromethyl)-1,3,4-thiadiazol-2-yl)-8-(4-isobutyrylpiperazin-1-yl)-1-methylimidazo[1,5-a]pyridine-6-sulfonamide]",1.66,122
"C[C@@H]1CN(c2cc(S(=O)(=O)NC3CC3)cn3c(-c4nnc(C(F)(F)F)s4)nnc23)CCN1C(=O)C1(C)CC1 [Example 386, (R)—N-cyclopropyl-8-(3-methyl-4-(1-methylcyclopropane-1-carbonyl)piperazin-1-yl)-3-(5-(trifluoromethyl)-1,3,4-thiadiazol-2-yl)-[1,2,4]triazolo[4,3-a]pyridine-6-sulfonamide]",263,7880
"C[C@H]1CN(c2cc(S(=O)(=O)NC3(C)COC3)cn3c(-c4nnc(C(F)F)s4)cnc23)C[C@H](C)N1 [Example 182, 3-(5-(difluoromethyl)-1,3,4-thiadiazol-2-yl)-8-((3S,5S)-3,5-dimethylpiperazin-1-yl)-N-(3-methyloxetan-3-yl)imidazo[1,2-a]pyridine-6-sulfonamide]",0.53,128
"N#CC1(NS(=O)(=O)c2cc(N3CCN(c4ccccn4)CC3)c3cnc(-c4nnc(C(F)(F)F)s4)n3c2)CC1 [Example 244, N-(1-cyanocyclopropyl)-8-(4-(pyridin-2-yl)piperazin-1-yl)-3-(5-(trifluoromethyl)-1,3,4-thiadiazol-2-yl)imidazo[1,5-a]pyridine-6-sulfonamide]",75.9,9000
"CN1CC(C(=O)N2CCN(c3cc(S(=O)(=O)NC4(C)CC4)cn4c(-c5nnc(C(F)(F)F)s5)ncc34)CC2)C1 [Example 333, 8-(4-(1-methylazetidine-3-carbonyl)piperazin-1-yl)-N-(1-methylcyclopropyl)-3-(5-(trifluoromethyl)-1,3,4-thiadiazol-2-yl)imidazo[1,5-a]pyridine-6-sulfonamide]",3.83,310
"N#CC1(NS(=O)(=O)c2cc(N3CC[C@H](O)C3)c3cnc(-c4nnc(C(F)(F)F)s4)n3c2)CC1 [Example 239, (S)-N-(1-cyanocyclopropyl)-8-(3-hydroxypyrrolidin-1-yl)-3-(5-(trifluoromethyl)-1,3,4-thiadiazol-2-yl)imidazo[1,5-a]pyridine-6-sulfonamide]",380,9790
"N#CC1(NS(=O)(=O)c2cc(N3CCC(c4nnco4)CC3)c3cnc(-c4nnc(C(F)(F)F)s4)n3c2)CC1 [Example 221, 8-(4-(1,3,4-oxadiazol-2-yl)piperidin-1-yl)-N-(1-cyanocyclopropyl)-3-(5-(trifluoromethyl)-1,3,4-thiadiazol-2-yl)imidazo[1,5-a]pyridine-6-sulfonamide]",43.7,150
"COC1(C(=O)N2CCN(c3cc(S(=O)(=O)NC4(C)CC4)cn4c(-c5nnc(C(F)F)s5)ncc34)C[C@H]2CF)CC1 [Example 200, (S)-3-(5-(difluoromethyl)-1,3,4-thiadiazol-2-yl)-8-(3-(fluoromethyl)-4-(1-methoxycyclopropane-1-carbonyl)piperazin-1-yl)-N-(1-methylcyclopropyl)imidazo[1,5-a]pyridine-6-sulfonamide]",0.63,54.6
"COCC1CN(c2cc(S(=O)(=O)NC3(C)COC3)cn3c(-c4nnc(C(F)(F)F)s4)cnc23)CCN1 (stereo not shown) [Example 360, 8-(3-(methoxymethyl)piperazin-1-yl)-N-(3-methyloxetan-3-yl)-3-(5-(trifluoromethyl)-1,3,4-thiadiazol-2-yl)imidazo[1,2-a]pyridine-6-sulfonamide]",36.3,637
